{"source": "paper PMC10053710", "about": "“Influence of Lipidation Pattern of the KR12 Fragment of Peptide LL-37 on Its Antibacterial and Hemolytic Activities” (International Journal of Molecular Sciences, 2023)", "key": {"[1]": {"tested_on": "Pseudomonas aeruginosa ATCC 9027", "type": "cell-based", "settings": "ATCC 9027, 18 h", "description": "(§1) Tests of the antibacterial activity were carried out as we just described. Briefly, for assays, the following strains of ESKAPE bacteria were chosen: Acinetobacter baumannii ATCC BAA-1605, Enterococcus faecium ATCC 700221, Klebsiella aerogenes ATCC 13048 (formerly Enterobacter aerogenes), Klebsiella pneumoniae ATCC 700603, and Pseudomonas aeruginosa ATCC 9027. Moreover, the reference strains of Staphylococcus aureus were used: S. aureus ATCC 25923, S. aureus ATCC 6538, S. aureus ATCC 33591 (MRSA), S. aureus ATCC 9144, and S. aureus ATCC 12598. Before experiments, all the strains were stored at −80 °C in Roti®-Store cryo vials (Carl Roth GmbH, Karlsruhe, Germany). To evaluate the activity of the compounds, bacteria were transferred into fresh Mueller–Hinton medium (Becton Dickinson, Warszawa, Poland) and incubated for 24 h at 37 °C. In the next step, bacterial inoculums were seeded on Mueller–Hinton agar plates (BioMaxima SA, Lublin, Poland) and incubated again for 24 h. The MIC values were determined using the broth microdilution method according to the Clinical and Laboratory Standards Institute Protocol. The initial inoculums of bacteria (0.5 × 10^5 colony forming units (CFU)/mL) prepared in Mueller–Hinton broth were exposed to the ranging concentrations of peptides (1–512 µg/mL). The experiments were conducted on 96-well microtiter plates, with a final volume of 100 µL. The inoculum densities were checked spectrophotometrically (Multiskan™ GO Microplate Spectrophotometer, Thermo Scientific, Waltham, MA, USA) at 600 nm. The results were read after incubation for 18 h at 37 °C. The MIC values were the lowest concentration at which a visible growth of microorganisms was inhibited. All experiments were conducted in triplicate. Moreover, positive (growth) and negative (sterility) controls were included."}, "[2]": {"tested_on": "Klebsiella pneumoniae ATCC 700603", "type": "cell-based", "settings": "ATCC 700603, 18 h", "description": "as §1"}, "[3]": {"tested_on": "Klebsiella aerogenes ATCC 13048", "type": "cell-based", "settings": "ATCC 13048, 18 h", "description": "as §1"}, "[4]": {"tested_on": "Enterococcus faecium ATCC 700221", "type": "cell-based", "settings": "ATCC 700221, 18 h", "description": "as §1"}, "[5]": {"tested_on": "human red blood cells (hRBCs)", "assay": "Hemolysis assay", "settings": "4% (v/v) erythrocytes in PBS, peptides 1–512 µg/mL, 1 h at 37 °C, hemoglobin at 540 nm, 100% = 1% Triton-X 100; ≥ means less than 5% hemolysis up to 512 µg/mL"}, "[6]": {"settings": "18 h"}, "[7]": {"tested_on": "S. aureus ATCC 12598", "type": "cell-based, Staphylococcus aureus", "settings": "ATCC 12598, 18 h", "description": "as §1"}, "[8]": {"tested_on": "S. aureus ATCC 33591 (MRSA)", "type": "cell-based, Staphylococcus aureus", "settings": "ATCC 33591, 18 h", "description": "as §1"}, "[9]": {"tested_on": "S. aureus ATCC 6538", "type": "cell-based, Staphylococcus aureus", "settings": "ATCC 6538, 18 h", "description": "as §1"}, "[10]": {"tested_on": "S. aureus ATCC 9144", "type": "cell-based, Staphylococcus aureus", "settings": "ATCC 9144, 18 h", "description": "as §1"}, "[11]": {"tested_on": "S. aureus ATCC 25923", "type": "cell-based, Staphylococcus aureus", "settings": "ATCC 25923, 18 h", "description": "as §1"}}, "note": "Where a SMILES comes first, the peptide text is derived from it. The star is where a group is joined. Octanoyl = CCCCCCCC(=O)*"}
{"smiles": "CCCCCCCC(=O)NCCCC[C@H](N)C(=O)N[C@@H](CCCCN)C(=O)N[C@@H](CCCNC(=N)N)C(=O)N[C@H](C(=O)N[C@H](C(=O)N[C@@H](CCC(N)=O)C(=O)N[C@@H](CCCNC(=N)N)C(=O)N[C@H](C(=O)N[C@@H](CCCCN)C(=O)N[C@@H](CC(=O)O)C(=O)N[C@@H](Cc1ccccc1)C(=O)N[C@@H](CC(C)C)C(=O)N[C@@H](CCCNC(=N)N)C(N)=O)[C@@H](C)CC)C(C)C)[C@@H](C)CC", "note": "[V, C8^ε-Lys-KR12-NH2] (H-K(Octanoyl)KRIVQRIKDFLR-NH2)", "values": [{"measurement": "MIC P. aeruginosa", "setting": "[1]", "result": 16, "unit": "µg/mL"}, {"measurement": "MIC K. pneumoniae", "setting": "[2]", "result": 16, "unit": "µg/mL"}, {"measurement": "MIC K. aerogenes", "setting": "[3]", "result": 64, "unit": "µg/mL"}, {"measurement": "MIC E. faecium", "setting": "[4]", "result": 4, "unit": "µg/mL"}, {"measurement": "MHC5 (minimum hemolytic concentration causing 5% hemolysis of hRBCs)", "setting": "[5]", "result": 256, "unit": "µg/mL"}, {"measurement": "MIC A. baumannii", "setting": "[6]", "result": 32, "unit": "µg/mL"}, {"measurement": "MIC S. aureus 12598", "setting": "[7]", "result": 32, "unit": "µg/mL"}, {"measurement": "MIC S. aureus 33591", "setting": "[8]", "result": 64, "unit": "µg/mL"}, {"measurement": "MIC S. aureus 6538", "setting": "[9]", "result": 8, "unit": "µg/mL"}, {"measurement": "MIC S. aureus 9144", "setting": "[10]", "result": 32, "unit": "µg/mL"}, {"measurement": "MIC S. aureus 25923", "setting": "[11]", "result": 64, "unit": "µg/mL"}]}
{"smiles": "CCCCCCCC(=O)NCCCC[C@H](NC(=O)[C@H](CCCNC(=N)N)NC(=O)[C@H](CC(C)C)NC(=O)[C@H](Cc1ccccc1)NC(=O)[C@H](CC(=O)O)NC(=O)[C@H](CCCCN)NC(=O)[C@@H](NC(=O)[C@H](CCCNC(=N)N)NC(=O)[C@H](CCC(N)=O)NC(=O)[C@@H](NC(=O)[C@@H](NC(=O)[C@H](CCCNC(=N)N)NC(=O)[C@@H](N)CCCCN)[C@@H](C)CC)C(C)C)[C@@H](C)CC)C(N)=O", "note": "[VI, KR12-Lys^ε(C8)-NH2] (H-KRIVQRIKDFLRK(Octanoyl)-NH2)", "values": [{"measurement": "MIC P. aeruginosa", "setting": "[1]", "result": 32, "unit": "µg/mL"}, {"measurement": "MIC K. pneumoniae", "setting": "[2]", "result": 32, "unit": "µg/mL"}, {"measurement": "MIC K. aerogenes", "setting": "[3]", "result": 64, "unit": "µg/mL"}, {"measurement": "MIC E. faecium", "setting": "[4]", "result": 4, "unit": "µg/mL"}, {"measurement": "MIC A. baumannii", "setting": "[6]", "result": 16, "unit": "µg/mL"}, {"measurement": "MIC S. aureus 12598", "setting": "[7]", "result": 32, "unit": "µg/mL"}, {"measurement": "MIC S. aureus 33591", "setting": "[8]", "result": 32, "unit": "µg/mL"}, {"measurement": "MIC S. aureus 6538", "setting": "[9]", "result": 64, "unit": "µg/mL"}, {"measurement": "MIC S. aureus 9144", "setting": "[10]", "result": 32, "unit": "µg/mL"}, {"measurement": "MIC S. aureus 25923", "setting": "[11]", "result": 64, "unit": "µg/mL"}]}
{"smiles": "CCCCCCCC(=O)NCCCC[C@H](NC(=O)[C@H](CC(C)C)NC(=O)[C@H](Cc1ccccc1)NC(=O)[C@H](CC(=O)O)NC(=O)[C@H](CCCCN)NC(=O)[C@@H](NC(=O)[C@H](CCCNC(=N)N)NC(=O)[C@H](CCC(N)=O)NC(=O)[C@@H](NC(=O)[C@@H](NC(=O)[C@H](CCCNC(=N)N)NC(=O)[C@@H](N)CCCCN)[C@@H](C)CC)C(C)C)[C@@H](C)CC)C(N)=O", "note": "[VII, [Lys^ε(C8)]^12KR12-NH2] (H-KRIVQRIKDFLK(Octanoyl)-NH2)", "values": [{"measurement": "MIC P. aeruginosa", "setting": "[1]", "result": 64, "unit": "µg/mL"}, {"measurement": "MIC K. pneumoniae", "setting": "[2]", "result": 128, "unit": "µg/mL"}, {"measurement": "MIC K. aerogenes", "setting": "[3]", "result": 64, "unit": "µg/mL"}, {"measurement": "MIC E. faecium", "setting": "[4]", "result": 16, "unit": "µg/mL"}, {"measurement": "MIC A. baumannii", "setting": "[6]", "result": 32, "unit": "µg/mL"}, {"measurement": "MIC S. aureus 12598", "setting": "[7]", "result": 512, "unit": "µg/mL"}, {"measurement": "MIC S. aureus 33591", "setting": "[8]", "result": 512, "unit": "µg/mL"}, {"measurement": "MIC S. aureus 6538", "setting": "[9]", "result": 64, "unit": "µg/mL"}, {"measurement": "MIC S. aureus 9144", "setting": "[10]", "result": 512, "unit": "µg/mL"}, {"measurement": "MIC S. aureus 25923", "setting": "[11]", "result": 128, "unit": "µg/mL"}]}
{"smiles": "CCCCCCCC(=O)NCCCC[C@H](NC(=O)[C@@H](NC(=O)[C@H](CCCNC(=N)N)NC(=O)[C@H](CCC(N)=O)NC(=O)[C@@H](NC(=O)[C@@H](NC(=O)[C@H](CCCNC(=N)N)NC(=O)[C@@H](N)CCCCN)[C@@H](C)CC)C(C)C)[C@@H](C)CC)C(=O)N[C@@H](CC(=O)O)C(=O)N[C@@H](Cc1ccccc1)C(=O)N[C@@H](CC(C)C)C(=O)N[C@@H](CCCNC(=N)N)C(N)=O", "note": "[VIII, [Lys^ε(C8)]^8KR12-NH2] (H-KRIVQRIK(Octanoyl)DFLR-NH2)", "values": [{"measurement": "MIC P. aeruginosa", "setting": "[1]", "result": 64, "unit": "µg/mL"}, {"measurement": "MIC K. pneumoniae", "setting": "[2]", "result": 32, "unit": "µg/mL"}, {"measurement": "MIC K. aerogenes", "setting": "[3]", "result": 32, "unit": "µg/mL"}, {"measurement": "MIC E. faecium", "setting": "[4]", "result": 8, "unit": "µg/mL"}, {"measurement": "MHC5 (minimum hemolytic concentration causing 5% hemolysis of hRBCs)", "setting": "[5]", "result": 64, "unit": "µg/mL"}, {"measurement": "MIC A. baumannii", "setting": "[6]", "result": 8, "unit": "µg/mL"}, {"measurement": "MIC S. aureus 12598", "setting": "[7]", "result": 32, "unit": "µg/mL"}, {"measurement": "MIC S. aureus 33591", "setting": "[8]", "result": 32, "unit": "µg/mL"}, {"measurement": "MIC S. aureus 6538", "setting": "[9]", "result": 4, "unit": "µg/mL"}, {"measurement": "MIC S. aureus 9144", "setting": "[10]", "result": 16, "unit": "µg/mL"}, {"measurement": "MIC S. aureus 25923", "setting": "[11]", "result": 32, "unit": "µg/mL"}]}
